{"source": "patent US8282910B2", "about": "“Composition for skin or hair” (Shiseido Company Ltd., priority 2007, dated 2012)", "key": {"[1]": {"conditions": "background statement; cited from earlier work"}, "[2]": {"experiment": "Solubility of poorly-soluble UV absorbers in oils: triazine derivative (Test Example 3)", "type": "physicochemical", "conditions": "2,4-bis{[4-(2-ethylhexyloxy)-2-hydroxy]phenyl}-6-(4-methoxyphenyl) 1,3,5-triazine dissolved in the oil; supernatant after crystal nuclei, 0° C", "procedure": "(§1) Each of triazine derivative and dibenzoylmethane derivative was warmed and dissolved into each oil shown in Table 2, and then each mixture was cooled to room temperature. After adding crystal nuclei, they were cooled at 0° C. A saturation solubility of each supernatant fluid was measured.\n2,4-bis{[4-(2-ethylhexyloxy)-2-hydroxy]phenyl}-6-(4-methoxyphenyl) 1,3,5-triazine was used as triazine derivative."}, "[3]": {"experiment": "Solubility of poorly-soluble UV absorbers in oils: dibenzoylmethane derivative (Test Example 3)", "type": "physicochemical", "conditions": "4-tert-butyl-4′-methoxydibenzoylmethane dissolved in the oil; supernatant after crystal nuclei, 0° C", "procedure": "as §1\n4-tert-butyl-4′-methoxydibenzoylmethane was used as a dibenzoylmethane derivative (i.e. component (a))."}}}
{"smiles": "COc1ccc(C(=O)CC(=O)c2ccc(C(C)(C)C)cc2)cc1", "note": "[4-tert-butyl-4′-methoxydibenzoylmethane]", "values": [{"measurement": "absorption maximum", "setting": "[1]", "value": "around 360 nm"}]}
{"smiles": "CCCCCCCC(=O)OCC(COC(=O)CCCCCCC)(COC(=O)CCCCCCC)COC(=O)CCCCCCC", "note": "[Pentaerithrityl tetraoctanoate]", "values": [{"measurement": "Saturation solubility of triazine derivative", "setting": "[2]", "value": 4, "unit": "%"}, {"measurement": "Saturation solubility of dibenzoylmethane derivative", "setting": "[3]", "value": 6, "unit": "%"}]}
